Earlier results in patent US20230321590A1, “AQUEOUS LIQUID SORBENT” (COMPACT CARBON CAPTURE AS, priority 2020, published 2023).

Details: literature values

SMILES	Reaction rate constant at 25° C. [m^3kmol^−1s^−1]
CC(C)(N)CO [2-amino-2-methyl-1-propanol (AMP), 2-amino-2-methyl-1-propanol]	810
OCCNCCO [Diethanolamine (DEA), Diethanolamine]	2375
NCCOCCO [Diglycolamine (DGA), Diglycolamine]	6663
CC(O)CNCC(C)O (stereo not drawn) [Diisopropanolamine (DIPA), Diisopropanolamine]	2585
NCCO [Monoethanolamine (MEA), Monoethanolamine]	7000
C1CNCCN1 [Piperazine]	53700
